From PubChem BioAssay (NCI)
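Following 48 hours of exposure in 96-well plates, responses at five concentrations were used to interpolate endpoints linearly. At the GI50, growth is halved. Definition used: TGI = concentration required for complete inhibition of growth.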

Key:
Experiment in all cases: DTP human tumour cell line panel, 48 h
A498 renal = tested on: A498 renal
ACHN renal = tested on: ACHN renal
HL-60(TB) leukemia = tested on: HL-60(TB) leukemia
HS 578T breast = tested on: HS 578T breast
IGROV1 ovarian = tested on: IGROV1 ovarian
LOX IMVI melanoma = tested on: LOX IMVI melanoma
NCI-H460 lung = tested on: NCI-H460 lung
OVCAR-8 ovarian = tested on: OVCAR-8 ovarian
SK-MEL-28 melanoma = tested on: SK-MEL-28 melanoma
UACC-257 melanoma = tested on: UACC-257 melanoma

| SMILES | TGI (A498 renal) [µM] | TGI (ACHN renal) [µM] | TGI (HL-60(TB) leukemia) [µM] | TGI (HS 578T breast) [µM] | TGI (IGROV1 ovarian) [µM] | TGI (LOX IMVI melanoma) [µM] | TGI (NCI-H460 lung) [µM] | TGI (OVCAR-8 ovarian) [µM] | TGI (SK-MEL-28 melanoma) [µM] | TGI (UACC-257 melanoma) [µM] | GI50 (HS 578T breast) [µM] | GI50 (LOX IMVI melanoma) [µM] |
| --- | --- | --- | --- | --- | --- | --- | --- | --- | --- | --- | --- | --- |
| O=C(O)C1C2OC(C(Br)C2Br)C1C(=O)O (configuration not stated) | > 100 | > 100 | > 100 | > 100 | > 100 | > 100 | > 100 | > 100 | > 100 | > 100 | – | – |
| CCOC1OC(C)(C=C(C#N)C#N)CCC1C (configuration not stated) | 51 | > 100 | 80.4 | > 89.1 | 36.8 | > 75.8 | 98.7 | > 68 | > 100 | > 100 | – | – |
| CCOC(=O)c1c(-c2ccc(Cl)cc2)c(C#N)c(=S)n(C2OC(COC(C)=O)C(OC(C)=O)C(OC(C)=O)C2OC(C)=O)c1C (configuration not stated) | > 100 | > 100 | > 100 | > 100 | > 100 | > 100 | > 100 | > 100 | > 100 | > 100 | > 100 | – |
| CC(=O)CCN1CC2CN=NC2(C#N)C1 (configuration not stated) | > 100 | > 88.7 | > 62.6 | > 95.7 | > 100 | > 100 | > 100 | > 100 | > 100 | > 100 | – | – |
| COC1=C(OC)C(=O)C(Cc2c(-c3ccccc3)nc3sc(Cl)cn23)=C(C)C1=O | 47.2 | 30.7 | 24.7 | 44.3 | 29.9 | 71.7 | 40 | 32.9 | 27 | 29.9 | – | – |
| COc1cc2c(cc1OCCN1CCN(CCOc3cc4c(cc3OC)C(=O)N3CCC[C@H]3C=N4)CC1)N=C[C@@H]1CCCN1C2=O | > 72.5 | > 91.6 | > 100 | > 100 | > 78.3 | > 100 | > 100 | > 100 | > 100 | > 100 | – | > 100 |
| C=C(C)C1CCC2(C)C1CCC1(C)C2CCC2C3(C)C4OC(OC4=O)C(C)(C)C3CCC21C (configuration not stated) | > 100 | > 100 | 80.1 | > 100 | > 100 | > 100 | > 100 | > 100 | > 100 | > 100 | – | – |
| Fc1nc(Sc2ncnc3nc[nH]c23)nc(-c2c3ccccc3c3sc4ccccc4n23)n1 | > 100 | > 100 | > 100 | > 100 | > 100 | > 100 | > 100 | > 100 | > 100 | > 100 | – | – |
| CC[P+](c1ccccc1)(N(C)C)N(C)C | > 100 | > 100 | > 100 | > 100 | > 100 | > 100 | > 100 | > 100 | > 100 | > 100 | – | – |
| COc1cc2c(cc1OC)C(C1CC1)ON(C)CC2 (configuration not stated) | > 100 | > 100 | > 100 | > 100 | > 100 | > 100 | > 100 | > 100 | > 100 | > 100 | – | – |
| Nc1ncnc2c1ncn2CCCNO | > 100 | > 100 | > 100 | > 100 | > 100 | > 100 | > 100 | > 100 | > 100 | > 100 | – | – |
| O=c1ccc(=O)c2c1c1[nH]c3ccccc3c1c1c(=O)c3ccccc3c(=O)c21 | > 10 | > 10 | 9.85 | > 10 | > 10 | > 10 | > 10 | > 10 | > 10 | > 10 | – | – |
| CC1OC23CCCCC2C(C#N)(C#N)C1(C#N)C(=N)O3 (configuration not stated) | 61.6 | 42.8 | 22.1 | 57.8 | 41.9 | 40.2 | 43.5 | 54.1 | 56 | 37.6 | – | – |
| Nc1c(-c2ccccc2)c2ccc([N+](=O)[O-])cc2c(=O)n1-c1cccc(C(=O)O)c1 | > 100 | > 100 | > 100 | > 100 | > 100 | > 100 | > 100 | > 100 | > 100 | > 100 | – | – |
| NCC1OC(OC2C(N)CC(N)C(O)C2OC2OC(CO)C(O)C2O)C(N)C(O)C1O (configuration not stated) | > 100 | > 100 | > 100 | > 100 | > 100 | > 100 | > 100 | > 100 | > 100 | > 100 | – | – |
| CCOC(=O)/C=C(/OCC)[C@@H]1C(C(=O)c2ccc(Cl)cc2)[C@@H]1/C(=C\C(=O)OCC)OCC (some centres not stated) | > 100 | > 69.1 | 37.5 | > 100 | > 100 | > 100 | > 100 | > 100 | > 100 | > 100 | – | – |
| Cc1cc(S(=O)(=O)NC2=NCc3c(F)cccc3N2)c(S)cc1Cl | > 100 | > 100 | > 100 | > 100 | > 100 | > 100 | > 100 | > 100 | > 100 | > 100 | – | – |
| CC(C)NC(=O)OCCN=C1c2ccccc2C(Br)C(Br)c2ccccc21 (configuration not stated) | 6.58 | 25.4 | 2.6 | 31.4 | 7.14 | 10.1 | 32.4 | 24.8 | 35.1 | 35.8 | – | – |
